# Measurements from patent US20110269166A1, “SEALING SURFACE SAMPLING PROBE APPLIED TO BLOOD SPOTS AND TISSUES” (UT-BATTELLE, LLC, priority 2010, published 2011).
# Experiment: SSSP-MS/MS spot sampling of whole-body thin tissue sections of a propranolol dosed mouse
# Type: in vivo
# Conditions: male CD-1 mouse, propranolol 7.5 mg/kg i.v., sacrificed 60 min post-dose, 40 μm section, ESI+
# Description: At 60 min post-dose, mice were euthanized with an isoflurane overdose and immediately frozen in dry ice/hexane. The frozen mice were embedded/blocked in 2% aqueous carboxymethyl cellulose. Sagittal whole-body cryosections (40 μm thick) were prepared using a Leica CM3600 cryomacrotome and collected onto adhesive tape (8″×3″, 810 Scotch® Brand Magic™ Tape, 3M) then freeze-dried within the chamber of the cryomacrotome. Prior to analysis using the SSSP, tissue sections were stored in a desiccator at room temperature. Color images of the tissue sections were acquired using a HP Scanjet 4370 flat-bed scanner (Hewlett-Packard, Palo Alto, Calif., USA).
# The inlet and outlet of the SSSP (“TLC-MS interface”, CAMAG, Muttenz, Switzerland) were coupled to an ACQUITY UltraPerformance Liquid Chromatography (UPLC) system (Waters Corporation, Manchester, UK) and to a 4000 QTRAP® mass spectrometer (MDS SCIEX, Concord, Ontario, Canada), respectively (see FIG. S1 in the Supplemental section). The gas pressure applied via a piston to the plunger of the SSSP interface was about 5 bar. The flow rate of the extraction solvent was 200 μL/min in all cases. For positive ion mode ESI, the emitter voltage was 5 kV and the turbo sprayer heater temperature was 300° C. For positive ion mode APCI, heated nebulizer probe temperature and needle current were 350° C. and 5 μA, respectively.
# The extraction solvent flow paths and the individual steps of the surface sampling process with the SSSP are illustrated in FIGS. 3A-3E and 4A-4E. The solvent inlet capillary to the SSSP was connected to the UPLC pump, while the outlet capillary was connected to the ion source (ESI or APCI) of the mass spectrometer. At the beginning of a surface sampling experiment, a sample was positioned under the SSSP plunger while the extraction solvent flowed from the UPLC through a loop into the ion source (as in FIGS. 3A and 4A). Next, the SSSP stainless steel plunger, with 4-mm-diameter disk shape cutting edge, was lowered to seal the sampling area by cutting into and compressing the sample substrate (paper or adhesive tape in this case) (as in FIGS. 3B and 4B). By switching the valve from standby to extraction mode, the solvent previously being pumped directly to the ion source was diverted to the surface, where it extracted the analyte, and any other soluble components, and carried them into the ion source (FIGS. 3C and 4C). After a suitable extraction time (typically 60 seconds), the valve was switched back to direct the extraction solvent from the UPLC through the loop into the ion source (FIGS. 3D and 4D). […] In the final step of the surface sampling process, the plunger was raised up from the surface (FIGS. 3E and 4E) and then a cleaning station was positioned under the probe. Here, using push button control, the sampling face of the plunger was cleaned of accumulated particulate material using a stream of pressurized nitrogen. In the case of the tissue sections on tape, the probe actually cut out a section from the sample which stayed with the probe until removed by this gas jet cleaning. […] This washed the SSSP plunger face and tubing from the plunger to the valve and on into the ion source. Given 15 or 30 s to position the probe for analysis of a DBS or tissue sample spot, respectively, a 60 second extraction time and 60 s wash time to eliminate carryover, spot-to-spot analysis time was either […].
# The tissue section was collected onto an adhesive tape substrate, which is a common format to collect whole-body tissue sections for WBA analyses.
SRM signal in brain (spot 2),SRM signal in heart (spot 5),SRM signal in kidney (spot 3),SRM signal in liver (spot 1),SRM signal in lung (spot 6),Compound
High,–,–,–,–,"CC(C)NCC(O)COc1cccc2ccccc12 (stereo not drawn) [propranolol, reference compound]"
not detected,Much lower,highest,highest,Much lower,hydroxypropranolol glucuronide
